pIC50: −log10 of the molar value.
Molecular target: Misshapen-like kinase 1 (MINK1) (Homo sapiens, UniProt Q8N4C8)
Experiment: ADP-Glo kinase assay with recombinant human MINK1, MBP substrate and ATP
Format: biochemical

Misshapen-like kinase 1 (MINK1), sequence (Q8N4C8 whole entry): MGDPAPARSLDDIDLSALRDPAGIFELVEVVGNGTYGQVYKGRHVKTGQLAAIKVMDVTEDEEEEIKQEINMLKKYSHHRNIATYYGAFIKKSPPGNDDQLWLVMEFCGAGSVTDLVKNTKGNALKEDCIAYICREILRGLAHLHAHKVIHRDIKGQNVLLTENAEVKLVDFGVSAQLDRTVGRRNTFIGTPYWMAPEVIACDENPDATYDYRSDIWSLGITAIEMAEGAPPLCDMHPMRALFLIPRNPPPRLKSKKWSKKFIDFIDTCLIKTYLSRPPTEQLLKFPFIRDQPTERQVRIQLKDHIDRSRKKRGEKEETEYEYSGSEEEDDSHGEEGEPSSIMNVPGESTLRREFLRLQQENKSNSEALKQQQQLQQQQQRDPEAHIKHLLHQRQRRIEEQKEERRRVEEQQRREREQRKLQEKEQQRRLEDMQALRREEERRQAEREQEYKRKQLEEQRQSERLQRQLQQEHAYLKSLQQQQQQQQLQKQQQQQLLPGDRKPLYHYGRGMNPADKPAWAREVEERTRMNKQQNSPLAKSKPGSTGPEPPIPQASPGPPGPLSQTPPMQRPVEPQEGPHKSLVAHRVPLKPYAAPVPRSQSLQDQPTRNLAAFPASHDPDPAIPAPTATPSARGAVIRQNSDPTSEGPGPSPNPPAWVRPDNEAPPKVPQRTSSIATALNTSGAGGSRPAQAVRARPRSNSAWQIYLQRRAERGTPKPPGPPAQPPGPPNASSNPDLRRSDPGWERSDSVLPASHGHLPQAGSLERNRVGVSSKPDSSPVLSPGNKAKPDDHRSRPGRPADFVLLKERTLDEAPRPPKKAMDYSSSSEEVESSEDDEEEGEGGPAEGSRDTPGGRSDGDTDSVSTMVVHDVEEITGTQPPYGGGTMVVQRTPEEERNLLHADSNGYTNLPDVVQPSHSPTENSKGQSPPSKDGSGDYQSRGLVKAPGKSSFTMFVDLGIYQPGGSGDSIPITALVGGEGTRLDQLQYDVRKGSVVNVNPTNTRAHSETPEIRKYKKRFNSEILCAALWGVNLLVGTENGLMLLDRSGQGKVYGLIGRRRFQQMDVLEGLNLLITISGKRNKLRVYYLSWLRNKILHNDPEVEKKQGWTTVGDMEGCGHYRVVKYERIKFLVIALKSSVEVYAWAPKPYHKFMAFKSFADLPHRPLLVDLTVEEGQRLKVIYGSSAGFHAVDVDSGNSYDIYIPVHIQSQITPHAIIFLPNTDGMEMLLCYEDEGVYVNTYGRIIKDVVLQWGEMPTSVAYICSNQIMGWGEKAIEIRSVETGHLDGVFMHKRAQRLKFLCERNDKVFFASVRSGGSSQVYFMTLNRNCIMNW

pIC50: 5.00
Compound: Cc1ccc(-n2nc(C(C)(C)C)cc2NC(=O)NCc2cc(F)ccc2Oc2ccc3c(cnn3CCO)c2)cc1 [pexmetinib]

Reference: paper PMC9630125 (Oncogene, 2022)
